Laboratory results as given in patent US20220370486A1, “COMBINATION TREATMENT OF SYSTEMIC FUNGAL INFECTIONS” (The Board of Trustees of the University of Illinois, priority 2019, published 2022).
≈ marks a conversion by molar mass, not a printed value. Like-named read-outs stand apart in the source and are kept apart here. Values belong to the molecule of their own block, whether it stands above or below them.

Assays:
[1] = UV-Vis and PCA based sterol sponge binding assay; conditions: apparent KD, sterol sponge aggregates in vitro
Text: However, an alternative method was developed for reproducible formation of homogenous AmB and C2′epiAmB sterol sponge aggregates in vitro. Using these preparations, a quantitative UV-Vis and Principle Component (PCA) based assay for determining the apparent Kis for the binding of AmB and C2′epiAmB to ergosterol and cholesterol (FIGS. 2A-2D) was developed.

Candida albicans SN250 = test: MIC against Candida albicans SN250; assay type: cell-based
yeast cells = test: Antifungal activity after ergosterol pre-complexation of the sponge; assay type: cell-based; conditions: sponge pre-complexed with ergosterol
Text: Anderson, T. M. et al., Nat Chem Biol 2014, 10 (5), 400-6. […] Davis, S. A., et al., Nat Chem Biol 2015, 11 (7), 481-7. To test whether C2′epiAmB primarily kills cells via the same sterol sponge mechanism, the C2′epiAmB sponge was similarly pre-complexed with ergosterol. […] Thus, C2′epiAmB similarly kills yeast primarily via sterol binding, and, by extension, the new compounds targeted in this application are expected to have a similar barrier to fungal resistance that has been observed for the past 50+years with AmB.

C. tropicalis 1046709 = test: Checkerboard broth microdilution (CLSI); assay type: cell-based; conditions: isolate 1046709
Description: (§1) Isolates were tested against varying concentrations of amphotericin B and C2′epiAmB (range, 0.06 to 4 mg/L) and combined with fluconazole (range, 0.12 to 128 mg/L) or ketoconazole (range 0.008 to 8 mg/L) or voriconazole (range, 0.004 to 4 mg/L) using a checkerboard grid design following the Clinical and Laboratory Standards Institute (CLSI) broth microdilution method (M23Ed5).

[2] = test system: C. parapsilosis ATCC 22019; test: Checkerboard broth microdilution (CLSI); assay type: cell-based; conditions: isolate ATCC 22019
Description: as §1

A. fumigatus 1077391 = test: Checkerboard broth microdilution (CLSI); assay type: cell-based; conditions: isolate 1077391
Description: as §1

F. solani SC 1047542 = test: Checkerboard broth microdilution (CLSI); assay type: cell-based; conditions: isolate 1047542
Description: as §1

C. albicans 967374 = test: Checkerboard broth microdilution (CLSI); assay type: cell-based; conditions: isolate 967374; for MIC: single agent
Description: as §1

C. auris 1081160 = test: Checkerboard broth microdilution (CLSI); assay type: cell-based; conditions: isolate 1081160
Description: as §1

A. flavus SC 1085986 = test: Checkerboard broth microdilution (CLSI); assay type: cell-based; conditions: isolate 1085986
Description: as §1

C. krusei ATCC 6258 = test: Checkerboard broth microdilution (CLSI); assay type: cell-based; conditions: isolate ATCC 6258
Description: as §1

C. parapsilosis 1048737 = test: Checkerboard broth microdilution (CLSI); assay type: cell-based; conditions: isolate 1048737
Description: as §1

C. krusei 975691 = test: Checkerboard broth microdilution (CLSI); assay type: cell-based; conditions: isolate 975691; for MIC: single agent
Description: as §1

C. glabrata 1046695 = test: Checkerboard broth microdilution (CLSI); assay type: cell-based; conditions: isolate 1046695
Description: as §1

[3] = test system: A. fumigatus ATCC MYA-3626; test: Checkerboard broth microdilution (CLSI); assay type: cell-based; conditions: isolate ATCC MYA-3626
Description: as §1

F. oxysporum SC 1087597 = test: Checkerboard broth microdilution (CLSI); assay type: cell-based; conditions: isolate 1087597
Description: as §1

A. flavus ATCC 204304 = test: Checkerboard broth microdilution (CLSI); assay type: cell-based; conditions: isolate ATCC 204304
Description: as §1

human red blood cells = test: Toxicity to human red blood cells; assay type: cell-based
Text: (§2) This key discovery opened a path to the rational development of a non-toxic AmB variant. To probe its predicted role in sterol binding, the hydroxyl group was synthetically deleted at the C2′ position on the mycosamine appendage.
(§3) In each case, C2′epiAmB is non-toxic to human red blood cells, primary hREC, mice, and rats up to the highest dose tested.

yeast = test: Activity against yeast; assay type: cell-based
Text: as §2

[4] = Isothermal titration calorimetry (ITC) sterol binding
Text: as §2
A practical 11-step synthesis of C2′epiAmB using a frontier site-selective acylation method was developed. Wilcock, B. C. et al., Nat Chem 2012, 4 (12), 996-1003; Uno, B. E. A synthesis enabled understanding of Amphotericin B leading to derivatives with improved therapeutic indices. University of Illinois at Urbana-Champaign, 2014. The sterol binding and cell killing activities was then determined.

primary hREC = test: Toxicity to primary hREC; assay type: cell-based, human
Text: as §2, §3

Kd ([1]; read-out: KD,chol): 840 nM
Kd ([1]; read-out: KD,erg): 120 nM
MIC (Candida albicans SN250): 0.15 µM (≈ 0.139 µg/mL)
MIC (C. tropicalis 1046709; Candida tropicalis, single agent): 0.5 µg/mL
MIC when added 1 log2 unit lower of azoles' MIC (C. tropicalis 1046709; with fluconazole): 0.25 mg/L
MIC when added 1 log2 unit lower of azoles' MIC (C. tropicalis 1046709; with ketoconazole): 0.5 mg/L
MIC when added 1 log2 unit lower of azoles' MIC (C. tropicalis 1046709; with voriconazole): 0.5 mg/L
MIC when added 1 log2 unit lower of azoles' MIC ([2]; with fluconazole): 0.25 mg/L
MIC when added 1 log2 unit lower of azoles' MIC ([2]; with ketoconazole): 0.25 mg/L
MIC when added 1 log2 unit lower of azoles' MIC ([2]; with voriconazole): 0.5 mg/L
MIC (A. fumigatus 1077391; Aspergillus fumigatus, single agent): 1 µg/mL
MIC when added 1 log2 unit lower of azoles' MIC (A. fumigatus 1077391; with ketoconazole): 0.06 mg/L
MIC when added 1 log2 unit lower of azoles' MIC (A. fumigatus 1077391; with voriconazole): 1 mg/L
MIC (F. solani SC 1047542; Fusarium solani, single agent): 2 µg/mL
MIC when added 1 log2 unit lower of azoles' MIC (F. solani SC 1047542; with ketoconazole): 0.06 mg/L
MIC when added 1 log2 unit lower of azoles' MIC (F. solani SC 1047542; with voriconazole): 2 mg/L
MIC (C. albicans 967374; Candida albicans, read-out: MIC): 0.5 µg/mL
MIC (C. albicans 967374): 1 µg/mL
MIC when added 1 log2 unit lower of azoles' MIC (C. albicans 967374; with fluconazole): 0.5 mg/L
MIC when added 1 log2 unit lower of azoles' MIC (C. albicans 967374; with ketoconazole): 0.5 mg/L
MIC when added 1 log2 unit lower of azoles' MIC (C. albicans 967374; with voriconazole): 0.5 mg/L
MIC (C. auris 1081160; Candidozyma auris, single agent, read-out: MIC): 1 µg/mL
MIC when added 1 log2 unit lower of azoles' MIC (C. auris 1081160; with fluconazole): 0.06 mg/L
MIC when added 1 log2 unit lower of azoles' MIC (C. auris 1081160; with ketoconazole): 1 mg/L
MIC when added 1 log2 unit lower of azoles' MIC (C. auris 1081160; with voriconazole): 1 mg/L
MIC (A. flavus SC 1085986; Aspergillus flavus, single agent): 2 µg/mL
MIC when added 1 log2 unit lower of azoles' MIC (A. flavus SC 1085986; with ketoconazole): 1 mg/L
MIC when added 1 log2 unit lower of azoles' MIC (A. flavus SC 1085986; with voriconazole): 2 mg/L
MIC (C. krusei ATCC 6258; Pichia kudriavzevii, ATCC6258, single agent, read-out: MIC): 0.5 µg/mL
MIC (C. krusei ATCC 6258; single agent): 1 µg/mL
MIC when added 1 log2 unit lower of azoles' MIC (C. krusei ATCC 6258; with fluconazole): 0.5 mg/L
MIC when added 1 log2 unit lower of azoles' MIC (C. krusei ATCC 6258; with ketoconazole): 0.5 mg/L
MIC when added 1 log2 unit lower of azoles' MIC (C. krusei ATCC 6258; with voriconazole): 0.5 mg/L
MIC (C. parapsilosis 1048737; Lodderomyces parapsilosis, single agent, read-out: MIC): 0.5 µg/mL
MIC when added 1 log2 unit lower of azoles' MIC (C. parapsilosis 1048737; with fluconazole): 0.25 mg/L
MIC when added 1 log2 unit lower of azoles' MIC (C. parapsilosis 1048737; with ketoconazole): 0.25 mg/L
MIC when added 1 log2 unit lower of azoles' MIC (C. parapsilosis 1048737; with voriconazole): 0.25 mg/L
MIC (C. krusei 975691; Pichia kudriavzevii, read-out: MIC): 1 µg/mL
MIC (C. krusei 975691): 0.5 µg/mL
MIC when added 1 log2 unit lower of azoles' MIC (C. krusei 975691; with fluconazole): 0.5 mg/L
MIC when added 1 log2 unit lower of azoles' MIC (C. krusei 975691; with ketoconazole): 0.5 mg/L
MIC when added 1 log2 unit lower of azoles' MIC (C. krusei 975691; with voriconazole): 0.5 mg/L
MIC (C. glabrata 1046695; Nakaseomyces glabratus, single agent, read-out: MIC): 0.5 µg/mL
MIC when added 1 log2 unit lower of azoles' MIC (C. glabrata 1046695; with fluconazole): 0.5 mg/L
MIC when added 1 log2 unit lower of azoles' MIC (C. glabrata 1046695; with ketoconazole): 0.06 mg/L
MIC when added 1 log2 unit lower of azoles' MIC (C. glabrata 1046695; with voriconazole): 0.5 mg/L
MIC ([3]; Aspergillus fumigatus, single agent, read-out: MIC): 1 µg/mL
MIC when added 1 log2 unit lower of azoles' MIC ([3]; with ketoconazole): 2 mg/L
MIC when added 1 log2 unit lower of azoles' MIC ([3]; with voriconazole): 1 mg/L
MIC (F. oxysporum SC 1087597; Fusarium oxysporum, single agent): 2 µg/mL
MIC when added 1 log2 unit lower of azoles' MIC (F. oxysporum SC 1087597; with ketoconazole): 0.06 mg/L
MIC when added 1 log2 unit lower of azoles' MIC (F. oxysporum SC 1087597; with voriconazole): 2 mg/L
MIC (A. flavus ATCC 204304; Aspergillus flavus, ATCC204304, single agent): 1 µg/mL
MIC when added 1 log2 unit lower of azoles' MIC (A. flavus ATCC 204304; with ketoconazole): 1 mg/L
MIC when added 1 log2 unit lower of azoles' MIC (A. flavus ATCC 204304; with voriconazole): 0.5 mg/L
Compound: C[C@@H]1[C@H](O)[C@@H](C)/C=C/C=C/C=C/C=C/C=C/C=C/C=C/[C@H](O[C@@H]2O[C@H](C)[C@@H](O)[C@H](N)[C@@H]2O)C[C@@H]2O[C@](O)(C[C@@H](O)C[C@@H](O)[C@H](O)CC[C@@H](O)C[C@@H](O)CC(=O)O[C@H]1C)C[C@H](O)[C@H]2C(=O)O [AmB, Amphotericin B]
change of potency upon ergosterol pre-complexation (yeast cells): same reduction in potency

Compound: CC1C=CC=CC=CC=CC=CC=CC=CC(OC2CC(N)C(O)C(C)O2)CC2OC(O)(CC(O)CC(O)C(O)CCC(O)CC(O)CC(=O)OC(C)C(C)C1O)CC(O)C2C(=O)O (stereo not shown) [C2′deOAmB]
toxicity to human red blood cells (human red blood cells): nontoxic
activity against yeast (yeast): retained good activity
binding of ergosterol by ITC [4]: bind ergosterol
binding of cholesterol by ITC ([4]; within the detection limits of ITC): not cholesterol
toxicity to primary hREC (primary hREC): nontoxic
